Where two headings read alike, the source gives them in different places. Each block holds one compound with its values, some of them ahead of it.
Legend:
[1] = Critical micelle concentration and surface tension measurement (tensiometer, Pt plate); format: physicochemical; settings: for CMC / γmin: room temperature; for CMC: DI water; for γmin: DI water (calibrated to 72.7±0.2 mN/m); for behavior in terms of CMC compared with Compound 1 / behavior in terms of interfacial tension (γ) reduction compared with Compound 1: photoisomers of Compound 1
Protocol: To characterize the behavior of the compounds of this invention as surfactants, surface tension can be plotted as a function of concentration and critical micelle concentrations (CMCs) of these surfactants can be calculated. In addition, the hydrophobic-lipophilic balance (HLB) of a surfactant can be calculated according to Griffin's Method. See e.g., Pasquali, R. C.; Taurozzi, M. P.; Bregni, C. Int. J. Pharm.
The CMC for compounds of the invention is determined using known methods in the art.
See, e.g., Pasquali, R. C.; Taurozzi, M. P.; Bregni, C. Int. J. Pharm. […] 14.

[2] = Ross-Miles foam test (ASTM D1173); format: physicochemical; settings: for foam enhancing and stabilizing capability compared with Compound 1: photoisomers of Compound 1
[3] = O-alkylglucoside reference, see Rybinski and Hill 1998; cited from earlier work

Structure (SMILES): CCCC1CC(=O)C([C@@H]2O[C@H](CO)[C@@H](O)[C@H](O)[C@H]2O)=CC1CC (stereo partly drawn) [Compound 2, 4-ethyl-5-propyl-2-((2S,3R,4R,5S,6R)-3,4,5-trihydroxy-6-(hydroxymethyl)tetrahydro-2H-pyran-2-yl)cyclohex-2-enone]
CMC [1]: 52.2 mM | γmin [1]: 30 mN/m

Structure (SMILES): CCCCCC1CC(=O)C([C@@H]2O[C@H](CO)[C@@H](O)[C@H](O)[C@H]2O)=CC1CCCC (stereo partly drawn) [Compound 3, 4-butyl-5-pentyl-2-((2S,3R,4R,5S,6R)-3,4,5-trihydroxy-6-(hydroxymethyl)tetrahydro-2H-pyran-2-yl)cyclohex-2-enone]
reduction in Interfacial Tension (IFT) ([1]; comparison of CMC curves between series, FIG. 1): greatest reduction in Interfacial Tension (IFT) | estimated CMC ([1]; estimated from point of inflection of CMC curve, FIG. 1): very low | CMC [1]: 0.17 mM | γmin [1]: 22 mN/m | foaming properties when combined with SDS ([2]; combined with SDS as a 20% solution, compared with SDS alone): exceeded that of SDS alone | foam height over 5 minutes when combined with SDS ([2]; combined with SDS as a 20% solution, over 5 minutes): remained unchanged | excess foam after 5 minutes ([2]; surfactant alone, after 5 minutes, FIG. 2): virtually no excess foam

Structure (SMILES): CCCCCCCCCCCCO[C@@H]1O[C@H](CO)[C@@H](O)[C@H](O)[C@H]1O [Dodecyl-AG]
CMC [3]: 0.17 mM | γmin [3]: 24 mN/m

Structure (SMILES): CCCCCCCCO[C@@H]1O[C@H](CO)[C@@H](O)[C@H](O)[C@H]1O [Octyl-AG]
CMC [3]: 18.0 mM | γmin [3]: 24 mN/m

Second part, the compound after the results:

CMC [1]: 0.1 mM | γmin [1]: 28 mN/m
Structure (SMILES): CCCCCCCCCCC/C=C/C(=O)C[C@@H]1O[C@H](CO)[C@@H](O)[C@H](O)[C@H]1O [Compound 1, (E)-1-((2S,3R,4R,5S,6R)-3,4,5-trihydroxy-6-(hydroxymethyl)tetrahydro-2H-pyran-2-yl)pentadec-3-en-2-one]

CMC [1]: 3.9 mM | γmin [1]: 24 mN/m
Structure (SMILES): CCCCC/C=C/C(=O)C[C@@H]1O[C@H](CO)[C@@H](O)[C@H](O)[C@H]1O [Compound 46, (E)-1-((2S,3R,4R,5S,6R)-3,4,5-trihydroxy-6-(hydroxy-methyl)tetrahydro-2H-pyran-2-yl)non-3-en-2-one]

behavior in terms of CMC compared with Compound 1 [1]: substanitally the same behavior | behavior in terms of interfacial tension (γ) reduction compared with Compound 1 [1]: substanitally the same behavior | foam enhancing and stabilizing capability compared with Compound 1 [2]: substanitally the same behavior
Structure (SMILES): CCCCCCCCCC/C=C/CC(=O)C[C@@H]1OC(CO)[C@@H](O)[C@H](O)C1O (some centres unmarked) [Compound 47]

behavior in terms of CMC compared with Compound 1 [1]: substanitally the same behavior | behavior in terms of interfacial tension (γ) reduction compared with Compound 1 [1]: substanitally the same behavior | foam enhancing and stabilizing capability compared with Compound 1 [2]: substanitally the same behavior
Structure (SMILES): CCCCCCCCCC/C=C\CC(=O)C[C@@H]1OC(CO)[C@@H](O)[C@H](O)C1O (some centres unmarked) [Compound 48]
